Data taken from ChEMBL document CHEMBL5321242, “Design and synthesis of 4-acetoxypentanamide derivatives of spliceostatin A and their biological evaluation towards prostate cancer treatment” (Bioorg Med Chem Lett, 2023).
≈ marks a conversion by molar mass, not a printed value.

Columns and labels:
[1] = Metabolic stability in human liver microsome assessed as parent compound remaining measured at 10 mins; type: ADME; settings: liver microsomes, read-out: Stability
[2] = Solubility of the compound in PBS buffer; type: physicochemical
[3] = Partition coefficient, logD of the compound; type: physicochemical; settings: octanol/water
[4] = Metabolic stability in mouse liver microsome assessed as parent compound remaining measured at 60 mins; type: ADME; settings: liver microsomes, read-out: Stability
[5] = Inhibition of AR-V7 expression in human 22Rv1 cells; type: functional, cell-based, CWR22R
[6] = Metabolic stability in mouse liver microsome assessed as parent compound remaining measured at 10 mins; type: ADME; settings: liver microsomes, read-out: Stability
[7] = Metabolic stability in human liver microsome assessed as parent compound remaining measured at 60 mins; type: ADME; settings: liver microsomes, read-out: Stability
PNT2 = assay: Cytotoxicity against human PNT2 cells assessed as reduction in cell viability upto 200 nM by MTS assay; type: toxicity, cell-based; settings: pnt2, 0.2 µM
[8] = Apparent permeability of the compound by PAMPA assay; type: ADME

Papp [8]	Structure (SMILES)	remaining at 10 min [1]	solubility [2]	logD [3]	remaining at 1 h [4]	IC50 [5]	remaining at 10 min [6]	remaining at 1 h [7]	Activity (PNT2)
	CO[C@]1(C)C[C@@]2(CO2)[C@H](O)[C@@H](/C=C/C(C)=C/C[C@@H]2O[C@H](C)[C@H](NC(=O)/C=C\[C@H](C)OC(C)=O)C[C@@H]2C)O1	32%	≥ 95 µM	3.8	0%	0.6 nM	2.5%	0.5%	
18.5 ×10⁻⁶ cm/s	CC(=O)O[C@@H](C)/C=C(/C)C(=O)N[C@@H]1C[C@H](C)[C@H](C/C=C(C)/C=C/[C@H]2OCC[C@@]3(CO3)[C@@H]2O)O[C@@H]1C	1%	≥ 95 µM	3.6	0%		0%	0%	Non-Toxic
	CC(=O)O[C@@H](C)/C=C\C(=O)N[C@@H]1C[C@H](C)[C@H](C/C=C(C)/C=C/[C@H]2OCC[C@@]3(CO3)[C@@H]2O)O[C@@H]1C	1.7%	95 µM (≈ 45.4 µg/mL)	3.4	0.1%		0.3%	0%	
3.5 ×10⁻⁶ cm/s	CC(C)NCC(O)COc1cccc2ccccc12 (configuration not stated) [PROPRANOLOL]								
8.5 ×10⁻⁶ cm/s	CC(=O)O[C@@H](C)CCC(=O)N[C@@H]1C[C@H](C)[C@H](C/C=C(C)/C=C/[C@H]2OCC[C@@]3(CO3)[C@@H]2O)O[C@@H]1C	6%	≥ 95 µM	3.1	0%		5%	0%	Non-Toxic

Structure (SMILES)	Papp [8]	remaining at 10 min [1]	solubility [2]	logD [3]	remaining at 1 h [4]	IC50 [5]	remaining at 10 min [6]	remaining at 1 h [7]	Activity (PNT2)
CC(=O)O[C@@H](C)/C=C/C(=O)N[C@@H]1C[C@H](C)[C@H](C/C=C(C)/C=C/[C@H]2OCC[C@@]3(CO3)[C@@H]2O)O[C@@H]1C	11.3 ×10⁻⁶ cm/s	0%	94.7 µM (≈ 45.2 µg/mL)	3.2	0%		27%	0%	
